This passage reports IC50 results from patent publication US12441725B2, “ISO-citrate dehydrogenase (IDH) inhibitor” (ZHEJIANG METON PHARMACEUTICAL CO., LTD, priority 2019, dated 2025).

The target in assay [1] is T1, IDH1 R132H (Homo sapiens, UniProt O75874, R132H).
T1 construct: 6xHis
Kind of assay: Biochemical assay for IDH inhibition (NADPH fluorescence), mutant IDH1 R132H. As to conditions: 50 nM IDH1-R132H, 1 hour pre-incubation, in triplet. Summed up: (§1)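 The read-out was the linear-phase loss of NADPH fluorescence (340/460 nm) over 15 min, background-subtracted and normalized to DMSO wells, giving triplicate IC50 values. Beforehand, R132H (50 nM) or R132C (25 nM) was exposed to compound for 1 h at room temperature with 1.33 mM α-KG at pH 7.5, and the reaction was triggered by adding an 80 μM NADPH solution.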

For assay [2], the target named is T2, IDH1 R132C (Homo sapiens, UniProt O75874, R132C).
T2 construct: 6xHis
T2 sequence (O75874 whole entry R132C): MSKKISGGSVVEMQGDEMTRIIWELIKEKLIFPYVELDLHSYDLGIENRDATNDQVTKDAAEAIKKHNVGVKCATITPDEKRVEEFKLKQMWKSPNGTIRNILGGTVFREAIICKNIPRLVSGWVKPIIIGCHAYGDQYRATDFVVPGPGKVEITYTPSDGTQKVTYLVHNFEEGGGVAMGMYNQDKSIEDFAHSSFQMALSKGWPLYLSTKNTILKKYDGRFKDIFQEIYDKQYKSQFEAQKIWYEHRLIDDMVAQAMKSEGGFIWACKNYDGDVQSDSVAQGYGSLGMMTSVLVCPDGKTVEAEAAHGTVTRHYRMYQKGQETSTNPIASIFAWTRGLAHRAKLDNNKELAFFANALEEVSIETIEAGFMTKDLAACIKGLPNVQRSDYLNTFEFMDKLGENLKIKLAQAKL
Nature of the assay: Biochemical assay for IDH inhibition (NADPH fluorescence), mutant IDH1 R132C. As to conditions: 25 nM IDH1-R132C, 1 hour pre-incubation, in triplet. Summed up:
as §1

The target of assay [3] is T3, IDH (endogenous IDH1 R132C) in HT1080 cell (Homo sapiens, UniProt O75874, R132C).
T3 construct: which harbor endogenous heterozygous IDH1 R132C and R132H mutation respectively and accumulate D-2-HG
T3 sequence (O75874 2-414 R132C): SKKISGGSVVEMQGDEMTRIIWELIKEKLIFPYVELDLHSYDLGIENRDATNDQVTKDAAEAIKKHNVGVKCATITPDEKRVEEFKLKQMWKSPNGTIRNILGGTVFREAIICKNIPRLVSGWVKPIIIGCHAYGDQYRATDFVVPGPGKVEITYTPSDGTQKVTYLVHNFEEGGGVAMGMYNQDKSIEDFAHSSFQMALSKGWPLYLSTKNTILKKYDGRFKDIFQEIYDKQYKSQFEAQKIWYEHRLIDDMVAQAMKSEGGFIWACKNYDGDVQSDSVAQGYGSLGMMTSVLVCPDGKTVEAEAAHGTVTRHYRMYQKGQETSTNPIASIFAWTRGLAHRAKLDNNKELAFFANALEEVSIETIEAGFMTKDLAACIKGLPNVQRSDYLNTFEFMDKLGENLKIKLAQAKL
Kind of assay: Cell-based assay for IDH inhibition (decrease of D-2-HG) in HT1080 cells. The settings on record: human fibrosarcoma cell line HT1080, 16 hours treatment, D-2-HG by LC-MS, in triplet. Summed up: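 LC-MS/MS quantification of D-2-HG, normalized to glutamate, follows a 16 h compound exposure of IDH1 R132C HT1080 cells in DMEM with 10% FBS. Extraction uses pre-chilled 40% methanol/40% acetonitrile in water. Triplicate determinations; IC50 from D-2-HG levels relative to DMSO-treated cells.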

Some results are limits rather than exact numbers.

T1 sequence (O75874 whole entry R132H): as the sequence (O75874 whole entry R132C) above, with C132H counted along it

The term IC50 denotes the concentration that inhibits the measured activity by half. As for `CCN1Cc2c(ccnc2N[C@@H](C)c2ccc(-c3ccnc(C4(O)CCC4)c3)c(F)c2)C1=O` [Compound 78, (S)-2-ethyl-4-((1-(3-fluoro-4-(2-(1-hydroxycyclobutyl)pyridin-4-yl)phenyl)ethyl)amino)-2,3-dihydro-1H-pyrrolo[3,4-c]pyridin-1-one], the IC50 in assay [1] was over 1000 nM; in assay [2], over 1000 nM; in assay [3], 500 to 1000 nM.

As for `CCN1Cc2c(ccnc2N[C@@H](C)c2ccc(-c3ccnc(CC4CC4)c3)c(F)c2)C1=O` [Compound 79, (S)-4-((1-(4-(2-(cyclopropylmethyl)pyridin-4-yl)-3-fluorophenyl)ethyl)amino)-2-ethyl-2,3-dihydro-1H-pyrrolo[3,4-c]pyridin-1-one], the IC50 in assay [1] was 100 to 500 nM; in assay [2] it was 100 to 500 nM; in assay [3], 500 to 1000 nM.

As to `CCN1Cc2c(ccnc2N[C@@H](C)c2ccc(-c3ccccc3)c(F)c2)C1=O` [Compound 80, (S)-2-ethyl-4-((1-(2-fluoro-[1,1′-biphenyl]-4-yl)ethyl)amino)-2,3-dihydro-1H-pyrrolo[3,4-c]pyridin-1-one], the IC50 in assay [1], in assay [2] and in assay [3] was over 1000 nM throughout.

For `CCN1Cc2c(ccnc2N[C@@H](C)c2ccc(-c3ccc(F)c(C)c3)c(F)c2)C1=O` [Compound 81, (S)-4-((1-(2,4′-difluoro-3′-methyl-[1,1′-biphenyl]-4-yl)ethyl)amino)-2-ethyl-2,3-dihydro-1H-pyrrolo[3,4-c]pyridin-1-one], the IC50 in assay [1] is 100 to 500 nM; in assay [2], 500 to 1000 nM; in assay [3], over 1000 nM.

Consider `CCN1Cc2c(ccnc2N[C@@H](C)c2ccc(-c3ccc(C)cn3)c(F)c2)C1=O` [Compound 82, (S)-2-ethyl-4-((1-(3-fluoro-4-(5-methylpyridin-2-yl)phenyl)ethyl)amino)-2,3-dihydro-1H-pyrrolo[3,4-c]pyridin-1-one], for which the IC50 in assay [1], in assay [2] and in assay [3] was over 1000 nM throughout.

`CCN1Cc2c(ccnc2N[C@@H](C)c2ccc(-c3ccn(C)n3)c(F)c2)C1=O` [Compound 83, (S)-2-ethyl-4-((1-(3-fluoro-4-(1-methyl-1H-pyrazol-3-yl)phenyl)ethyl)amino)-2,3-dihydro-1H-pyrrolo[3,4-c]pyridin-1-one]: the IC50 in assay [1], in assay [2] and in assay [3] was over 1000 nM throughout.

As to `CCN1Cc2c(ccnc2N[C@@H](C)c2ccc(-c3ccnc(C(C)(C)C#N)c3)c(F)c2)C1=O` [Compound 84, (S)-2-(4-(4-(1-((2-ethyl-1-oxo-2,3-dihydro-1H-pyrrolo[3,4-c]pyridin-4-yl)amino)ethyl)-2-fluorophenyl)pyridin-2-yl)-2-methylpropanenitrile], the figures for the IC50 in assay [1], in assay [2] and in assay [3] were 100 to 500 nM, over 1000 nM and over 1000 nM, respectively.

In the case of `CCN1Cc2c(ccnc2N[C@@H](C)c2ccc(-c3ccnc(C(O)C4CC4)c3)c(F)c2)C1=O` (stereo partly drawn) [Compound 85, 4-(((1S)-1-(4-(2-(cyclopropyl(hydroxy)methyl)pyridin-4-yl)-3-fluorophenyl)ethyl)amino)-2-ethyl-2,3-dihydro-1H-pyrrolo[3,4-c]pyridin-1-one], the IC50 in assay [1], in assay [2] and in assay [3] was over 1000 nM throughout.

For `CCN1Cc2c(ccnc2N[C@@H](C)c2ccc(-c3ccnc(C(=O)C4CC4)c3)c(F)c2)C1=O` [Compound 86, (S)-4-((1-(4-(2-(cyclopropanecarbonyl)pyridin-4-yl)-3-fluorophenyl)ethyl)amino)-2-ethyl-2,3-dihydro-1H-pyrrolo[3,4-c]pyridin-1-one], the IC50 in assay [1], in assay [2] and in assay [3] was over 1000 nM each time.

For the molecule `CCN1Cc2c(ccnc2N[C@@H](C)c2cc(F)c(-c3ccnc(C(C)(C)C)c3)cc2F)C1=O` [Compound 87, (S)-4-((1-(4-(2-(tert-butyl)pyridin-4-yl)-2,5-difluorophenyl)ethyl)amino)-2-ethyl-2,3-dihydro-1H-pyrrolo[3,4-c]pyridin-1-one], the IC50 in assay [1], in assay [2] and in assay [3] was under 100 nM throughout.

For the molecule `CCN1Cc2c(ccnc2N[C@@H](C)c2cc(F)c(-c3ccnc(C(F)(F)F)c3)cc2F)C1=O` [Compound 88, (S)-4-((1-(2,5-difluoro-4-(2-(trifluoromethyl)pyridin-4-yl)phenyl)ethyl)amino)-2-ethyl-2,3-dihydro-1H-pyrrolo[3,4-c]pyridin-1-one], the IC50 in assay [1] is 500 to 1000 nM; in assay [2], over 1000 nM; in assay [3], over 1000 nM.

As for `CCN1Cc2c(ccnc2N[C@@H](C)c2cc(F)c(-c3ccnc(C4CCC4)c3)cc2F)C1=O` [Compound 89, (S)-4-((1-(4-(2-cyclobutylpyridin-4-yl)-2,5-difluorophenyl)ethyl)amino)-2-ethyl-2,3-dihydro-1H-pyrrolo[3,4-c]pyridin-1-one], the IC50 in assay [1] is under 100 nM; in assay [2] it was 100 to 500 nM; in assay [3], 100 to 500 nM.

As for `CCN1Cc2c(ccnc2N[C@@H](C)c2cc(F)c(-c3ccnc(C4CC4)c3)cc2F)C1=O` [Compound 90, (S)-4-((1-(4-(2-cyclopropylpyridin-4-yl)-2,5-difluorophenyl)ethyl)amino)-2-ethyl-2,3-dihydro-1H-pyrrolo[3,4-c]pyridin-1-one], the IC50 is 100 to 500 nM in assay [1], over 1000 nM in assay [2] and 500 to 1000 nM in assay [3].

Regarding `CCN1Cc2c(ccnc2N[C@@H](C)c2cc(F)c(-c3ccnc(CC4CC4)c3)cc2F)C1=O` [Compound 91, (S)-4-((1-(4-(2-(cyclopropylmethyl)pyridin-4-yl)-2,5-difluorophenyl)ethyl)amino)-2-ethyl-2,3-dihydro-1H-pyrrolo[3,4-c]pyridin-1-one], the IC50 in assay [1] was 100 to 500 nM; in assay [2] it was 500 to 1000 nM; in assay [3], 100 to 500 nM.

In the case of `CCN1Cc2c(ccnc2N[C@@H](C)c2cc(F)c(-c3ccnc(-c4ccn(C)c4)c3)cc2F)C1=O` [Compound 92, (S)-4-((1-(2,5-difluoro-4-(2-(1-methyl-1H-pyrrol-3-yl)pyridin-4-yl)phenyl)ethyl)amino)-2-ethyl-2,3-dihydro-1H-pyrrolo[3,4-c]pyridin-1-one], the IC50 in assay [1] was over 1000 nM; in assay [2] it was over 1000 nM; in assay [3], 100 to 500 nM.

As to `CCN1Cc2c(ccnc2N[C@@H](C)c2cc(F)c(-c3ccnc(C4COC4)c3)cc2F)C1=O` [Compound 93, (S)-4-((1-(2,5-difluoro-4-(2-(oxetan-3-yl)pyridin-4-yl)phenyl)ethyl)amino)-2-ethyl-2,3-dihydro-1H-pyrrolo[3,4-c]pyridin-1-one], the IC50 in assay [1], in assay [2] and in assay [3] was over 1000 nM each time.

Regarding `CCN1Cc2c(ccnc2N[C@@H](C)c2cc(F)c(-c3ccnc(C4(O)COC4)c3)cc2F)C1=O` [Compound 94, (S)-4-((1-(2,5-difluoro-4-(2-(3-hydroxyoxetan-3-yl)pyridin-4-yl)phenyl)ethyl)amino)-2-ethyl-2,3-dihydro-1H-pyrrolo[3,4-c]pyridin-1-one], the IC50 in assay [1], in assay [2] and in assay [3] was over 1000 nM each time.

Take `CCN1Cc2c(ccnc2N[C@@H](C)c2cc(F)c(-c3ccnc(Cl)c3)cc2F)C1=O` [Compound 95, (S)-4-((1-(4-(2-chloropyridin-4-yl)-2,5-difluorophenyl)ethyl)amino)-2-ethyl-2,3-dihydro-1H-pyrrolo[3,4-c]pyridin-1-one]: the figures for the IC50 in assay [1], in assay [2] and in assay [3] were over 1000 nM, over 1000 nM and 500 to 1000 nM, respectively.

Take `CCN1Cc2c(ccnc2N[C@@H](C)c2cc(F)c(-c3ccnc(-c4ccnc(Cl)c4)c3)cc2F)C1=O` [Compound 96, (S)-4-((1-(4-(2′-chloro-[2,4′-bipyridin]-4-yl)-2,5-difluorophenyl)ethyl)amino)-2-ethyl-2,3-dihydro-1H-pyrrolo[3,4-c]pyridin-1-one]: the IC50 in assay [1] lay in the range of 100 to 500 nM; in assay [2] it was 500 to 1000 nM; in assay [3], 100 to 500 nM.

With `CCN1Cc2c(ccnc2N[C@@H](C)c2cc(F)c(-c3ccnc(C4CC(F)(F)C4)c3)cc2F)C1=O` [Compound 97, (S)-4-((1-(4-(2-(3,3-difluorocyclobutyl)pyridin-4-yl)-2,5-difluorophenyl)ethyl)amino)-2-ethyl-2,3-dihydro-1H-pyrrolo[3,4-c]pyridin-1-one], the IC50 lay in the range of 100 to 500 nM in assay [1], 500 to 1000 nM in assay [2] and 100 to 500 nM in assay [3].

`CCN1Cc2c(ccnc2N[C@@H](C)c2cc(F)c(-c3ccnc(-c4ccccc4)c3)cc2F)C1=O` [Compound 98, (S)-4-((1-(2,5-difluoro-4-(2-phenylpyridin-4-yl)phenyl)ethyl)amino)-2-ethyl-2,3-dihydro-1H-pyrrolo[3,4-c]pyridin-1-one]: the IC50 in assay [1] was 500 to 1000 nM; in assay [2], over 1000 nM; in assay [3], 100 to 500 nM.

With `CCN1Cc2c(ccnc2N[C@@H](C)c2cc(F)c(-c3ccnc(-c4cccnc4)c3)cc2F)C1=O` [Compound 99, (S)-4-((1-(4-([2,3′-bipyridin]-4-yl)-2,5-difluorophenyl)ethyl)amino)-2-ethyl-2,3-dihydro-1H-pyrrolo[3,4-c]pyridin-1-one], the IC50 in assay [1] was over 1000 nM; in assay [2], over 1000 nM; in assay [3] it was 500 to 1000 nM.
